Experimental data as given in BigSolDB 2.1.

O=S(=O)([O-])c1cccc2ccccc12.[Na+]
solubility (mole fraction)
Conditions | 278.15 K | 283.15 K | 288.15 K | 293.15 K | 298.15 K | 303.15 K | 308.15 K | 313.15 K | 318.15 K | 323.15 K
in 1,4-dioxane | 0.0004 | 0.000497 | 0.000602 | 0.000722 | 0.000842 | 0.00101 | 0.00121 | 0.00143 | 0.00169 | 0.00203
in acetone | 9.36e-05 | 0.000122 | 0.000156 | 0.000197 | 0.00024 | 0.000288 | 0.000351 | 0.000417 | 0.000501 | 0.0006
in cyclohexanone | 0.000222 | 0.000299 | 0.00038 | 0.000481 | 0.000603 | 0.000743 | 0.0009 | 0.00108 | 0.00127 | 0.00152
in ethanol | 0.000297 | 0.000386 | 0.000513 | 0.000668 | 0.000829 | 0.00106 | 0.00132 | 0.00167 | 0.00217 | 0.00277
in ethyl acetate | 4.49e-05 | 5.77e-05 | 7.34e-05 | 9.37e-05 | 0.000119 | 0.000148 | 0.000184 | 0.000227 | 0.000269 | 0.000311
in isopropanol | 0.000108 | 0.000145 | 0.000204 | 0.000275 | 0.000351 | 0.000458 | 0.000588 | 0.000727 | 0.000886 | 0.00109
